Experimental data as given in US20040121316A1 (priority 2002, published 2004).

Key:
mutant HIV-1 I84V/L90M = assay: Resistance Evaluation, I84V/L90M fold change; assay type: cell-based
[1] = tested on: wild-type HIV-1 strain IIIB; assay: microbe, parasite or virus in culture; assay type: cell-based; set-up: scale not given here; details: for EC50: Human immunodeficiency virus 1, IIIB
[2] = EC50 of mutant I84V/L90M relative to wild type, class symbols

| SMILES | EC50 [1] | I84V/L90M fold change (mutant HIV-1 I84V/L90M; mutant I84V/L90M vs wild type) | also measured |
| --- | --- | --- | --- |
| CCOP(=O)(CN1CC=C(CC(NC(=O)OC2COC3OCCC23)C(O)CN(CC(C)C)S(=O)(=O)c2ccc(OC)cc2)CC1)OCC (stereo not drawn) | – | – | I84V/L90M fold change (mutant HIV-1 I84V/L90M; [2]): + (>3 to ≦10) |
| CCOP(=O)(CCC1=CCN(CC(NC(=O)OC2COC3OCCC23)C(O)CN(CC(C)C)S(=O)(=O)c2ccc(OC)cc2)CC1)OCC (stereo not drawn) | – | – | I84V/L90M fold change (mutant HIV-1 I84V/L90M; [2]): + (>3 to ≦10) |
| CCOP(=O)(Cc1ccc(NCC(NC(=O)OC2COC3OCCC23)C(O)CN(CC(C)C)S(=O)(=O)c2ccc(OC)cc2)cc1)OCC (stereo not drawn) | – | – | I84V/L90M fold change (mutant HIV-1 I84V/L90M; [2]): + (>3 to ≦10) |
| CCOP(=O)(Cc1ccc(N(C)CC(NC(=O)OC2COC3OCCC23)C(O)CN(CC(C)C)S(=O)(=O)c2ccc(OC)cc2)cc1)OCC (stereo not drawn) | – | – | I84V/L90M fold change (mutant HIV-1 I84V/L90M; [2]): + (>3 to ≦10) |
| CCOP(=O)(Cc1ccc(CN(C)CC(NC(=O)OC2COC3OCCC23)C(O)CN(CC(C)C)S(=O)(=O)c2ccc(OC)cc2)cc1)OCC (stereo not drawn) | – | – | I84V/L90M fold change (mutant HIV-1 I84V/L90M; [2]): − (≦3) |
| CCOP(=O)(Cc1ccc2c(c1)CCN(CC(NC(=O)OC1COC3OCCC13)C(O)CN(CC(C)C)S(=O)(=O)c1ccc(OC)cc1)C2)OCC (stereo not drawn) | – | – | I84V/L90M fold change (mutant HIV-1 I84V/L90M; [2]): + (>3 to ≦10) |
| CCOP(=O)(COc1ccc2c(c1)CN(CC(NC(=O)OC1COC3OCCC13)C(O)CN(CC(C)C)S(=O)(=O)c1ccc(OC)cc1)C2)OCC (stereo not drawn) | > 5 µM | – | – |
| CCOP(=O)(CNc1ccc(CC(NC(=O)OC2COC3OCCC23)C(O)CN(CC(C)C)S(=O)(=O)c2ccc(OC)cc2)cc1)OCC (stereo not drawn) | – | – | I84V/L90M fold change (mutant HIV-1 I84V/L90M; [2]): − (≦3) |
| COc1ccc(S(=O)(=O)N(CC(C)C)CC(O)C(Cc2ccc(NCP(=O)(OCc3ccccc3)OCc3ccccc3)cc2)NC(=O)OC2COC3OCCC23)cc1 (stereo not drawn) | – | – | I84V/L90M fold change (mutant HIV-1 I84V/L90M; [2]): − (≦3) |
| COc1ccc(S(=O)(=O)N(CC(C)C)CC(O)C(Cc2ccc(C)cc2)NC(=O)OC2COC3OCCC23)cc1 (stereo not drawn) | – | + (>3 to ≦10) | – |
| COc1ccc(S(=O)(=O)N(CC(C)C)CC(O)C(Cc2ccc(OCc3ccccc3)cc2)NC(=O)OC2COC3OCCC23)cc1 (stereo not drawn) | – | − (≦3) | – |
| COc1ccc(S(=O)(=O)N(CCN2CCOCC2)CC(O)C(Cc2ccc(OCP(=O)(OCc3ccccc3)OCc3ccccc3)cc2)NC(=O)OC2COC3OCCC23)cc1 (stereo not drawn) | – | + (>3 to ≦10) | – |
| COc1ccc(S(=O)(=O)N(CC2CCNCC2)CC(O)C(Cc2ccc(O)cc2)NC(=O)OC2COC3OCCC23)cc1 (stereo not drawn) | > 5 µM | – | – |
| COc1ccc(S(=O)(=O)N(CC2CCN(C=O)CC2)CC(O)C(Cc2ccc(OCP(=O)(O)O)cc2)NC(=O)OC2COC3OCCC23)cc1 (stereo not drawn) | > 5 µM | – | – |
| CCOP(=O)(COc1ccc(CC(NC(=O)OC2COC3OCCC23)C(O)CN(CC2CCN(C=O)CC2)S(=O)(=O)c2ccc(OC)cc2)cc1)OCC (stereo not drawn) | > 5 µM | – | – |
| CCOP(=O)(COc1ccc(CC(NC(=O)OC2COC3OCCC23)C(O)CN(CC2CCN(C)CC2)S(=O)(=O)c2ccc(OC)cc2)cc1)OCC (stereo not drawn) | > 5 µM | – | – |
| Cc1ccc(C(=O)NC(Cc2ccc(OCP(=O)(OCc3ccccc3)OCc3ccccc3)cc2)C(O)CN(CC(C)C)S(=O)(=O)c2ccc(N)cc2)cc1O (stereo not drawn) | – | + (>3 to ≦10) | – |
| CCOP(=O)(COc1ccc(CC(NC(=O)OC2COC3OCCC23)C(O)CN(CC(C)C)S(=O)(=O)c2ccc([N+](=O)[O-])cc2)cc1)OCC (stereo not drawn) | – | − (≦3) | – |
| CCNc1ccc(S(=O)(=O)N(CC(C)C)CC(O)C(Cc2ccc(OCP(=O)(OCC)OCC)cc2)NC(=O)OC2COC3OCCC23)cc1 (stereo not drawn) | – | − (≦3) | – |
| CC(C)CN(CC(O)C(Cc1ccc(OCP(=O)(OCc2ccccc2)OCc2ccccc2)cc1)NC(=O)OC1COC2OCCC12)S(=O)(=O)c1ccc(N)cc1 (stereo not drawn) | – | − (≦3) | – |
| CCOP(=O)(COc1ccc(CC(NC(=O)OC2COC3OCCC23)C(O)CN(CC(C)C)S(=O)(=O)c2cccc(N)c2)cc1)OCC (stereo not drawn) | – | − (≦3) | – |
| CC(C)CN(CC(O)C(Cc1ccc(OCP(=O)(OCc2ccccc2)OCc2ccccc2)cc1)NC(=O)OC1COC2OCCC12)S(=O)(=O)c1cccc(N)c1 (stereo not drawn) | – | − (≦3) | – |
| CC(C)CN(CC(O)C(Cc1ccc(OCP(=O)(O)O)cc1)NC(=O)OC1COC2OCCC12)S(=O)(=O)c1ccccc1 (stereo not drawn) | > 5 µM | – | – |
| CC(C)CN(CC(O)C(Cc1ccc(OCP(=O)(O)O)cc1)NC(=O)OC1COC2OCCC12)S(=O)(=O)c1ccc(F)cc1 (stereo not drawn) | 0.5 to 5 µM | – | – |
| CC(C)CN(CC(O)C(Cc1ccc(OCP(=O)(O)O)cc1)NC(=O)OC1COC2OCCC12)S(=O)(=O)c1ccc(C(F)(F)F)cc1 (stereo not drawn) | 0.5 to 5 µM | – | – |
| CC(C)CN(CC(O)C(Cc1ccc(OCP(=O)(O)O)cc1)NC(=O)OC1COC2OCCC12)S(=O)(=O)c1ccc(OC(F)(F)F)cc1 (stereo not drawn) | 0.5 to 5 µM | – | – |
| CCOP(=O)(COc1ccc(C[C@H](NC(=O)O[C@H]2CO[C@H]3OCC[C@H]32)[C@H](O)CN(CC(C)C)S(=O)(=O)c2ccc([N+](=O)[O-])cc2)cc1)OCC | – | – | EC50 (nM) [1]: + + |
